Results as given in the supplement of paper PMC10307832.

Columns and labels:
Assay in all cases: relative viability (nuclei count vs DMSO), 5 days (fraction); higher = more cells survive
COR-L 105 = test system: COR-L 105
Summary of the method: (§1)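 Lung cancer cell lines in 1536-well plates were dosed by pin tool the day after seeding, either with one drug alone or with a fixed anchor-drug dose plus five library-drug doses (not always all listed) in √10 steps. After 5 days, cells were fixed and their nuclei stained in one step (final 0.05% Triton X-100, 1% formaldehyde, 1 ug/ml Hoechst), then counted on 4× images. Relative viability is the nuclei count in treated wells divided by that in vehicle wells. Values are medians of duplicate plates.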

COR-L23 = test system: COR-L23
Summary of the method: as §1

EKVX = test system: EKVX
Summary of the method: as §1

HARA = test system: HARA
Summary of the method: as §1

HOP-62 = test system: HOP-62
Summary of the method: as §1

NCI-H1355 = test system: NCI-H1355
Summary of the method: as §1

NCI-H1734 = test system: NCI-H1734
Summary of the method: as §1

NCI-H1755 = test system: NCI-H1755
Summary of the method: as §1

NCI-H1993 = test system: NCI-H1993
Summary of the method: as §1

NCI-H2009 = test system: NCI-H2009
Summary of the method: as §1

NCI-H2170 = test system: NCI-H2170
Summary of the method: as §1

NCI-H2228 = test system: NCI-H2228
Summary of the method: as §1

NCI-H2347 = test system: NCI-H2347
Summary of the method: as §1

NCI-H322M = test system: NCI-H322M
Summary of the method: as §1

NCI-H358 = test system: NCI-H358
Summary of the method: as §1

NCI-H647 = test system: NCI-H647
Summary of the method: as §1

NCI-H838 = test system: NCI-H838
Summary of the method: as §1

PC-14 = test system: PC-14
Summary of the method: as §1

SK-MES-1 = test system: SK-MES-1
Summary of the method: as §1

UMC-11 = test system: UMC-11
Summary of the method: as §1

Question: Which relative viability (COR-L 105; first compound 0.04 µM) does the source give for Clc1ccc(Nc2nnc(Cc3ccncc3)c3ccccc23)cc1 [Vatalanib] + C[C@@H](Oc1cc(-c2cnn(C3CCNCC3)c2)cnc1N)c1c(Cl)ccc(F)c1Cl [Crizotinib] (partner 1 µM) here?
Answer: 0.818

Question: What about the relative viability (COR-L 105; first compound 0.1265 µM) of the same compound?
Answer: 0.677

Question: What about the relative viability (COR-L 105; first compound 0.4 µM) of the same compound?
Answer: 0.938

Question: And the relative viability (COR-L 105; first compound 1.265 µM)?
Answer: 0.73

Question: And the relative viability (COR-L 105; first compound 4 µM)?
Answer: 0.827

Question: What about the relative viability (COR-L23; first compound 0.04 µM) of the same compound?
Answer: 0.7

Question: What about the relative viability (COR-L23; first compound 0.1265 µM) of the same compound?
Answer: 0.558

Question: What about the relative viability (COR-L23; first compound 0.4 µM) of the same compound?
Answer: 0.668

Question: And the relative viability (COR-L23; first compound 1.265 µM)?
Answer: 0.683

Question: What about the relative viability (COR-L23; first compound 4 µM) of the same compound?
Answer: 0.632

Question: And the relative viability (EKVX; first compound 0.04 µM)?
Answer: 0.993

Question: What about the relative viability (EKVX; first compound 0.1265 µM) of the same compound?
Answer: 0.9

Question: What about the relative viability (EKVX; first compound 0.4 µM) of the same compound?
Answer: 1.11

Question: What about the relative viability (EKVX; first compound 1.265 µM) of the same compound?
Answer: 1.02

Question: What about the relative viability (EKVX; first compound 4 µM) of the same compound?
Answer: 0.921

Question: And the relative viability (HARA; first compound 0.04 µM)?
Answer: 0.99

Question: What about the relative viability (HARA; first compound 0.1265 µM) of the same compound?
Answer: 0.956

Question: And the relative viability (HARA; first compound 0.4 µM)?
Answer: 1.01

Question: What about the relative viability (HARA; first compound 1.265 µM) of the same compound?
Answer: 1.07

Question: What about the relative viability (HARA; first compound 4 µM) of the same compound?
Answer: 0.998

Question: What about the relative viability (HOP-62; first compound 0.04 µM) of the same compound?
Answer: 0.921

Question: And the relative viability (HOP-62; first compound 0.4 µM)?
Answer: 0.948

Question: And the relative viability (HOP-62; first compound 1.265 µM)?
Answer: 0.911

Question: And the relative viability (HOP-62; first compound 4 µM)?
Answer: 0.904

Question: What about the relative viability (NCI-H1355; first compound 0.04 µM) of the same compound?
Answer: 1.05

Question: What about the relative viability (NCI-H1355; first compound 0.1265 µM) of the same compound?
Answer: 1.08

Question: And the relative viability (NCI-H1355; first compound 0.4 µM)?
Answer: 1.13

Question: And the relative viability (NCI-H1355; first compound 1.265 µM)?
Answer: 0.886

Question: What about the relative viability (NCI-H1355; first compound 4 µM) of the same compound?
Answer: 0.953

Question: What about the relative viability (NCI-H1734; first compound 0.04 µM) of the same compound?
Answer: 0.714

Question: And the relative viability (NCI-H1734; first compound 0.1265 µM)?
Answer: 0.645

Question: And the relative viability (NCI-H1734; first compound 0.4 µM)?
Answer: 0.796

Question: And the relative viability (NCI-H1734; first compound 1.265 µM)?
Answer: 0.694

Question: What about the relative viability (NCI-H1734; first compound 4 µM) of the same compound?
Answer: 0.57

Question: And the relative viability (NCI-H1755; first compound 0.04 µM)?
Answer: 0.886

Question: And the relative viability (NCI-H1755; first compound 0.1265 µM)?
Answer: 0.821

Question: What about the relative viability (NCI-H1755; first compound 0.4 µM) of the same compound?
Answer: 0.942

Question: And the relative viability (NCI-H1755; first compound 1.265 µM)?
Answer: 0.802

Question: And the relative viability (NCI-H1755; first compound 4 µM)?
Answer: 0.773

Question: And the relative viability (NCI-H1993; first compound 0.04 µM)?
Answer: 0.948

Question: What about the relative viability (NCI-H1993; first compound 0.1265 µM) of the same compound?
Answer: 0.853

Question: And the relative viability (NCI-H1993; first compound 0.4 µM)?
Answer: 0.935

Question: And the relative viability (NCI-H1993; first compound 1.265 µM)?
Answer: 0.805

Question: And the relative viability (NCI-H1993; first compound 4 µM)?
Answer: 0.846

Question: What about the relative viability (NCI-H2009; first compound 0.04 µM) of the same compound?
Answer: 0.987

Question: And the relative viability (NCI-H2009; first compound 0.1265 µM)?
Answer: 0.478

Question: What about the relative viability (NCI-H2009; first compound 0.4 µM) of the same compound?
Answer: 1.12

Question: What about the relative viability (NCI-H2009; first compound 1.265 µM) of the same compound?
Answer: 1

Question: And the relative viability (NCI-H2009; first compound 4 µM)?
Answer: 0.977

Question: And the relative viability (NCI-H2170; first compound 0.04 µM)?
Answer: 1.22

Question: And the relative viability (NCI-H2170; first compound 0.1265 µM)?
Answer: 1.21

Question: What about the relative viability (NCI-H2170; first compound 0.4 µM) of the same compound?
Answer: 1.18

Question: What about the relative viability (NCI-H2170; first compound 1.265 µM) of the same compound?
Answer: 1.06

Question: And the relative viability (NCI-H2170; first compound 4 µM)?
Answer: 1.04

Question: What about the relative viability (NCI-H2228; first compound 0.04 µM) of the same compound?
Answer: 0.332

Question: What about the relative viability (NCI-H2228; first compound 0.1265 µM) of the same compound?
Answer: 0.496

Question: And the relative viability (NCI-H2228; first compound 0.4 µM)?
Answer: 0.499

Question: And the relative viability (NCI-H2228; first compound 1.265 µM)?
Answer: 0.432

Question: What about the relative viability (NCI-H2228; first compound 4 µM) of the same compound?
Answer: 0.496

Question: And the relative viability (NCI-H2347; first compound 0.04 µM)?
Answer: 0.642

Question: What about the relative viability (NCI-H2347; first compound 0.1265 µM) of the same compound?
Answer: 0.69

Question: What about the relative viability (NCI-H2347; first compound 0.4 µM) of the same compound?
Answer: 0.654

Question: And the relative viability (NCI-H2347; first compound 1.265 µM)?
Answer: 0.817

Question: And the relative viability (NCI-H2347; first compound 4 µM)?
Answer: 0.732

Question: What about the relative viability (NCI-H322M; first compound 0.04 µM) of the same compound?
Answer: 1.02

Question: What about the relative viability (NCI-H322M; first compound 0.1265 µM) of the same compound?
Answer: 0.891

Question: And the relative viability (NCI-H322M; first compound 0.4 µM)?
Answer: 0.958

Question: And the relative viability (NCI-H322M; first compound 1.265 µM)?
Answer: 0.858

Question: What about the relative viability (NCI-H322M; first compound 4 µM) of the same compound?
Answer: 0.939

Question: And the relative viability (NCI-H358; first compound 0.04 µM)?
Answer: 0.641

Question: What about the relative viability (NCI-H358; first compound 0.1265 µM) of the same compound?
Answer: 0.522

Question: What about the relative viability (NCI-H358; first compound 0.4 µM) of the same compound?
Answer: 0.8

Question: And the relative viability (NCI-H358; first compound 1.265 µM)?
Answer: 0.585

Question: What about the relative viability (NCI-H358; first compound 4 µM) of the same compound?
Answer: 0.602

Question: And the relative viability (NCI-H647; first compound 0.04 µM)?
Answer: 0.92

Question: And the relative viability (NCI-H647; first compound 0.1265 µM)?
Answer: 1.07

Question: What about the relative viability (NCI-H647; first compound 0.4 µM) of the same compound?
Answer: 1.31

Question: What about the relative viability (NCI-H647; first compound 1.265 µM) of the same compound?
Answer: 0.977

Question: And the relative viability (NCI-H647; first compound 4 µM)?
Answer: 0.918

Question: What about the relative viability (NCI-H838; first compound 0.04 µM) of the same compound?
Answer: 0.837

Question: And the relative viability (NCI-H838; first compound 0.1265 µM)?
Answer: 0.867

Question: What about the relative viability (NCI-H838; first compound 0.4 µM) of the same compound?
Answer: 1.01

Question: What about the relative viability (NCI-H838; first compound 1.265 µM) of the same compound?
Answer: 0.73

Question: And the relative viability (NCI-H838; first compound 4 µM)?
Answer: 0.79

Question: And the relative viability (PC-14; first compound 0.04 µM)?
Answer: 0.976

Question: What about the relative viability (PC-14; first compound 0.1265 µM) of the same compound?
Answer: 0.916

Question: What about the relative viability (PC-14; first compound 0.4 µM) of the same compound?
Answer: 0.956

Question: And the relative viability (PC-14; first compound 1.265 µM)?
Answer: 0.825

Question: And the relative viability (PC-14; first compound 4 µM)?
Answer: 0.865

Question: And the relative viability (SK-MES-1; first compound 0.04 µM)?
Answer: 1.01

Question: What about the relative viability (SK-MES-1; first compound 0.1265 µM) of the same compound?
Answer: 0.808

Question: And the relative viability (SK-MES-1; first compound 0.4 µM)?
Answer: 1.14

Question: And the relative viability (SK-MES-1; first compound 1.265 µM)?
Answer: 0.927

Question: And the relative viability (SK-MES-1; first compound 4 µM)?
Answer: 0.925

Question: And the relative viability (UMC-11; first compound 0.04 µM)?
Answer: 0.616

Question: What about the relative viability (UMC-11; first compound 0.1265 µM) of the same compound?
Answer: 0.585

Question: What about the relative viability (UMC-11; first compound 0.4 µM) of the same compound?
Answer: 0.719

Question: And the relative viability (UMC-11; first compound 1.265 µM)?
Answer: 0.586

Question: What about the relative viability (UMC-11; first compound 4 µM) of the same compound?
Answer: 0.629
